The values below come from patent publication US7452887B2, “Quinoline- and isoquinoline-based compounds exhibiting ATP-utilizing enzyme inhibitory activity, and compositions, and uses thereof” (Amphora Discovery Corporation, priority 2004, dated 2008).

The target of one assay is T1, NEK2 (Homo sapiens, UniProt P51955).
T1 sequence (P51955 1-445): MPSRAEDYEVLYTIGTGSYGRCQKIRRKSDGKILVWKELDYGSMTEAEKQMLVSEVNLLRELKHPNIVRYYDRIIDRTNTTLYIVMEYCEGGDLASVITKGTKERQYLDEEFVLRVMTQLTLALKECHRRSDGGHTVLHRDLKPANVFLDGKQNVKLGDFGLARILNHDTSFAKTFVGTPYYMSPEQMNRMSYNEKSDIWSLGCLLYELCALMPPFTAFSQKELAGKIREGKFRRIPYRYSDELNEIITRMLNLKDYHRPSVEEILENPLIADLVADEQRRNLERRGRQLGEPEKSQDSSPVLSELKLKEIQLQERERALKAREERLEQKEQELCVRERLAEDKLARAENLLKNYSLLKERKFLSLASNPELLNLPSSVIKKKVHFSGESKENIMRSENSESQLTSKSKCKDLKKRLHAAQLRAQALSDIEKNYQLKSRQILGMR
Put plainly: HTS ATP-utilizing enzyme assay, off-chip mobility-shift (Caliper HTS 250). It counts as biochemical. The settings on record: test compound 10 μM, kinase listed = active (greater than six-sigma from the mean activity of inactive compounds). The essentials:
(§1)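 Inhibition is reported from a single 10 μM concentration. Kinase phosphorylates a peptide substrate over 2.5 hrs at 20° C. to 22° C. before EDTA termination. Potential hits are those beyond six-sigma statistical limits.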

The target in the next assay is T2, FLT-3 (Homo sapiens, UniProt P36888).
T2 sequence (P36888 27-993): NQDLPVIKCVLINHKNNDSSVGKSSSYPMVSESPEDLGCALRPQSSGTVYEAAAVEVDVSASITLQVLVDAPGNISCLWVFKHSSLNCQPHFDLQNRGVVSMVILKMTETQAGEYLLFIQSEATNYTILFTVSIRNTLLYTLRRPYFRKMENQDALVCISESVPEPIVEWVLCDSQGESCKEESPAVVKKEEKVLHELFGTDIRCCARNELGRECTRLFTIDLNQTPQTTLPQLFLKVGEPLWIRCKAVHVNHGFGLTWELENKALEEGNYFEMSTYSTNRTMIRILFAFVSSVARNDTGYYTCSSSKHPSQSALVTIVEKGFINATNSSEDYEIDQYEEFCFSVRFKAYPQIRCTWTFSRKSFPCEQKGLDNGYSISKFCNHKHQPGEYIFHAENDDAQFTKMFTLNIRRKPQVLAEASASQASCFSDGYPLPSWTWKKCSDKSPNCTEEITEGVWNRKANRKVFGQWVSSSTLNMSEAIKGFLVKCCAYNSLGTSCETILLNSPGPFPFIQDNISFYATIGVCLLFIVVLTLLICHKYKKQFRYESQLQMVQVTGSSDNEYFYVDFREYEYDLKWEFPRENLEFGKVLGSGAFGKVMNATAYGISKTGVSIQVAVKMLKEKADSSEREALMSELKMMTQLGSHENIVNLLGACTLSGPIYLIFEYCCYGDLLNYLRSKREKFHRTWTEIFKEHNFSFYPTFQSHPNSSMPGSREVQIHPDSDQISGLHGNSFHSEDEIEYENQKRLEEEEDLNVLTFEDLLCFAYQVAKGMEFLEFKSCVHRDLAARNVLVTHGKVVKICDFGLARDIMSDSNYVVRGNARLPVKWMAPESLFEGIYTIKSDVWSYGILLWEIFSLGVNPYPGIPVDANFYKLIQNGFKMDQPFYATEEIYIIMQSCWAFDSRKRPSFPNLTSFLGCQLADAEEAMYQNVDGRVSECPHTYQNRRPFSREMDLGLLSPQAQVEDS
The assay is described as above. The class given is biochemical. Particulars: test compound 10 μM, kinase listed = active (greater than six-sigma from the mean activity of inactive compounds). The essentials:
as §1

`CN1CCN(c2ccc(Nc3ccnc4ccc(-c5ccc(F)cc5)cc34)cc2)CC1` [6-(4-fluorophenyl)-N-(4-(4-methylpiperazin-1-yl)phenyl)quinolin-4-amine]: the Activity entry at NEK2 is given as “NEK2”.

Turning to `Cc1ccccc1-c1ccc2nccc(Nc3ccc(N4CCN(C)CC4)cc3)c2c1` [N-(4-(4-methylpiperazin-1-yl)phenyl)-6-o-tolylquinolin-4-amine], the Activity result on NEK2 is listed as “NEK2”.

For the compound `CN1CCN(c2ccc(Nc3ccnc4ccc(-c5ccncc5)cc34)cc2)CC1` [N-(4-(4-methylpiperazin-1-yl)phenyl)-6-(pyridin-4-yl)quinolin-4-amine], the Activity result on FLT-3 was “FLT-3”; on NEK2 it was “NEK2”.

`c1ccc(-c2ccc3nccc(Nc4ccc(N5CCNCC5)cc4)c3c2)cc1` [6-phenyl-N-(4-(piperazin-1-yl)phenyl)quinolin-4-amine]: the Activity result on FLT-3 is “FLT-3”.

`CN1CCN(c2ccc(Nc3ccnc4ccc(-c5ccc(O)cc5)cc34)cc2)CC1` [4-(4-(4-(4-methylpiperazin-1-yl)phenylamino)quinolin-6-yl)phenol]: the Activity entry at FLT-3 was “FLT-3”.

`CN1CCN(c2ccc(Nc3ccnc4ccc(-c5cccc6ccccc56)cc34)cc2)CC1` [N-(4-(4-methylpiperazin-1-yl)phenyl)-6-(naphthalen-1-yl)quinolin-4-amine]: the Activity entry on NEK2 is on record as “NEK2”.

Take `COc1ccc(-c2ccc3nccc(N(C)c4ccc(N5CCN(C)CC5)cc4)c3c2)cc1` [6-(4-methoxyphenyl)-N-methyl-N-(4-(4-methylpiperazin-1-yl)phenyl)quinolin-4-amine]: the Activity entry at FLT-3 was “FLT-3”.

With `COc1ccc(-c2ccc3nccc(Nc4ccc(N5CCNCC5)cc4)c3c2)cc1` [6-(4-methoxyphenyl)-N-(4-(piperazin-1-yl)phenyl)quinolin-4-amine], on FLT-3, the Activity entry is reported as “FLT-3”.

`CN1CCN(c2ccc(Nc3ccnc4ccc(-c5ccc6ccccc6c5)cc34)cc2)CC1` [N-(4-(4-methylpiperazin-1-yl)phenyl)-6-(naphthalen-2-yl)quinolin-4-amine]: the Activity entry on NEK2 was “NEK2”.
